# Experimental data: patent publication US5521293A (Lever Brothers Company, Division of Conopco, Inc., priority 1995, dated 1996)
# Where two headings read alike, the source gives them in different places.
# What was measured:
# [1] = Effectiveness in reducing surface tension (surface pressure at the CMC); assay type: physicochemical; conditions: 60° C., estimated by linear extrapolation
# Excerpt: Effectiveness of a surfactant in reducing surface tension is defined as the maximum reduction in surface tension that can be obtained regardless of the bulk phase surfactant concentration.
# As mentioned before, surface tension reduction depends on the replacement of water molecules at the interface by surfactant molecules, therefore the effectiveness of a surfactant in reducing interfacial surface tension should reflect the saturated concentration of surfactant at the interface relative to that in bulk liquid phase. During this process the surface tension of water steadily decreases as bulk phase surfactant concentration increases. This will continue until the concentration reaches the critical micelle concentration (CMC), above which the surface tension remains nearly unchanged and the interface is saturated with surfactant. The surface tension at the CMC is therefore very close to the minimum interfacial tension or maximum surface pressure that the system can achieve. The surface pressure at this point, cmc, is a suitable measure of the effectiveness of a surfactant in reducing surface tension and is given as:
# cmc =20+2.3 nRT(Γmax) log[CMC/C20 ]
# n=1 which represents the number of ions whose surface concentration changes with the change in liquid phase surfactant concentration.
# R=8.314×107 ergs/mol K (Gas Constant)
# Γmax =-1/2·303RT(∂γ/∂log [Conc])T=3.85×10^-10 mole/cm^2
# CMC/C20 =is the ratio of the critical micelle concentration to the bulk phase surfactant concentration necessary to reduce the surface tension of water by 20 dyn/cm.
# The effectiveness of various surfactants in reducing surface tension ( cmc) were determined and are set forth below: […]
# [2] = Effectiveness of adsorption at the interface (surface excess concentration at surface saturation); assay type: physicochemical; conditions: 60° C., estimated by linear extrapolation
# Excerpt: The surface excess concentration at surface saturation (Γmax) is defined as a measure of the effectiveness of surfactant adsorption at the water/air interface and represents the maximum value to which adsorption can be obtained. Effectiveness of adsorption is related to the interfacial area occupied by the surfactant molecule. The smaller the effective cross-sectional area of a surfactant at the interface, the greater its effectiveness of adsorption. The effectiveness of adsorption is an important factor in determining surfactant properties such as detergency, foaming, wetting or emulsification. While not wishing to be bound by theory, it is believed that surfactants that absorb effectively at the interface tend have tightly packed coherent interfacial films and often provide better surfactant benefits than those with loosely packed noncoherent films. The effectiveness of adsorption of C8 /C10 oxypropyl D-gluconarnide was determined using the Gibbs equation given as:
# Γmax =-1/2.303RT(∂γ/∂log[Conc])T
# (∂γ/∂log[Conc)T =-24.574971 ergs/cm^2 (which is equivalent to the
# slope of a plot of γ versus log[Conc]) R=8.3 14×10^7 ergs/mol K (Gas Constant)
# The surface excess concentration at surface saturation (Γmax) of various surfactants were determined and are set forth below: […]
# [3] = Area per molecule at the interface; assay type: physicochemical; conditions: 60° C., estimated by linear extrapolation
# Excerpt: The area per molecule of a surfactant at the water/air interface provides information on the degree of packing and the orientation of the adsorbed surfactant molecule. While not wishing to be bound by theory, it is believed that surfactants that have small area per molecule values tend to pack more closely at the interface than those with large area per molecule values. From the surface excess concentration at surface saturation (Γmax), the area per molecule (am) of C8 /C10 oxypropyl D-gluconamide was determined and is given by:
# am =1×10^16 /Nav Γmax
# Γmax =-1/2·303RT(∂γ/∂log[Conc])T
# NAV =6.0221×10^23 per gram mole (Avogadro's Number)
# The area per molecule (am) of several surfactants were-determined and are set forth below: […]
# [4] = cited from earlier work
# [5] = cited from earlier work; remark: listed apart in the source
# [6] = cited from earlier work; remark: listed apart in the source
# [7] = Krafft point of aqueous dispersion of aldonamide; assay type: physicochemical; conditions: for Krafft Point (1.0%): 1.0% in water by weight
# Experimental: The temperature at and above which surfactants begin to form micelles instead of precipitates is referred to as the Krafft point (Tk) and at this temperature the solubility of a surfactant becomes equal to its CMC (numerical value at which micelles are formed).
# The Krafft point was measured by preparing 650 ml of a 0.1% or 1.0% dispersion of aldonamide in water by weight. If the surfactant was soluble at room temperature, the solution was slowly cooled to 0° C. […] (less than zero). If it precipitated out of solution, the temperature at which precipitation occurs was taken as the Krafft point.
# If the surfactant was insoluble at :room temperature, the dispersion was slowly heated until the solution became homogeneous. It was then slowly cooled until precipitation occurred. The temperature at which the surfactant precipitates out of solution upon cooling was taken as the Krafft point.
# [8] = Water solubility; assay type: physicochemical; conditions: in words
# [9] = Ross-Miles foam height; assay type: physicochemical; set-up: key: X: low water solubility, foam height cannot be measured; conditions: Example 84; for Foam Height Final (symbol): after 10 minutes
# Experimental: Since most of the foaming data on surfactants is typically obtained by the Ross-Miles Foam Height Assay (Ross, J. and Miles, G. D. Am Soc. for Testing Material Method D1173-63 Philadelphia, Pa. (1953); Oil & Soap (1958) 62:1260) the foaming ability of these surfactants were acquired using this method.
# In the Ross-Miles method, 200 mL of a surfactant solution contained in a pipette of specified dimensions with a 2.9-mm-i.d. orifice is allowed to fall 90 cm onto 50 mL of the same solution contained in a cylindrical vessel maintained at a given temperature by means of a water jacket. The height of the foam produced in the cylindrical vessel is read immediately after all the solution has run out of the pipette and then again after a given amount of time.
# Using this method, the foam production (initial foam height in mm) and foam stability (final foam height after 10 minutes in mm) were measured at 0.1% aldonamide concentration, 40° C. and 0 ppm (parts per million) hardness. Aldonamides that were not soluble at 40° C. were measured at about 5°-10° C. above their Krafft points.
Compound,surface pressure at the CMC (cmc) [1] [dyn/cm],surface excess concentration at surface saturation (Γmax) [2],area per molecule (am) [3] [Å^2],Krafft Point (0.1%) ([7]; 0.1% in water by weight) [°C],water solubility [8],Krafft Point (1.0%) [7] [°C],Foam Height Final (symbol) [9],Foam Height Initial (symbol) [9],surface pressure at the CMC (cmc) ([4]; 25° C.) [dyn/cm],surface pressure at the CMC (cmc) ([4]; 40° C.) [dyn/cm],surface excess concentration at surface saturation (Γmax) ([5]; 25° C.),surface excess concentration at surface saturation (Γmax) ([5]; 40° C.),area per molecule (am) ([6]; 25° C.) [Å^2],area per molecule (am) ([6]; 40° C.) [Å^2]
CCCCCCCCCCCCOCCOCCOCCOCCOCCOCCOCCO [Dodecylhepta(oxyethylene) Ether],36.8,2.71 × 10^-10 mole/cm^2,61.0,,,,,,38.3,38.5,2.90 × 10^-10 mole/cm^2,2.77 × 10^-10 mole/cm^2,57.3,59.9
CCCCCCCCCCCCOCCOCCOCCOCCOCCOCCOCCOCCO [Dodecylocta(oxyethylene) Ether],36.3,2.40 × 10^-10 mole/cm^2,69.0,,,,,,37.2,37.3,2.52 × 10^-10 mole/cm^2,2.46 × 10^-10 mole/cm^2,66.0,67.4
CCCCCCCCCCCCOCCOCCOCCOCCOCCO [Dodecylpenta(oxyethylene) Ether],40.7,3.16 × 10^-10 mole/cm^2,52.3,,,,,,41.5,41.2,3.31 × 10^-10 mole/cm^2,3.28 × 10^-10 mole/cm^2,50.1,50.6
CCCCCCCCCCCCOCCOCCOCCOCCO [Dodecyltetra(oxyethylene) Ether],40.7,3.01 × 10^-10 mole/cm^2,53.3,,,,,,43.4,42.0,3.63 × 10^-10 mole/cm^2,3.41 × 10^-10 mole/cm^2,45.7,48.7
CCCCCCCCCCCCOCCOCCOCCO [Dodecyltri(oxyethylene) Ether],41.4,3.83 × 10^-10 mole/cm^2,45.4,,,,,,44.1,43.1,3.98 × 10^-10 mole/cm^2,3.90 × 10^-10 mole/cm^2,41.7,42.5

# More lines, main results first:
surface pressure at the CMC (cmc) [1] [dyn/cm],surface excess concentration at surface saturation (Γmax) [2],area per molecule (am) [3] [Å^2],Krafft Point (0.1%) ([7]; 0.1% in water by weight) [°C],water solubility [8],Krafft Point (1.0%) [7] [°C],Foam Height Final (symbol) [9],Foam Height Initial (symbol) [9],Compound,surface pressure at the CMC (cmc) ([4]; 25° C.) [dyn/cm],surface pressure at the CMC (cmc) ([4]; 40° C.) [dyn/cm],surface excess concentration at surface saturation (Γmax) ([5]; 25° C.),surface excess concentration at surface saturation (Γmax) ([5]; 40° C.),area per molecule (am) ([6]; 25° C.) [Å^2],area per molecule (am) ([6]; 40° C.) [Å^2]
,,,> 100,Insoluble,,,,"CCCCCCCCCCCCNC(=O)[C@H](O)[C@H](O)[C@@H](O)[C@@H](O)CO [L, C12 L-Mannonamide]",,,,,,
,,,,,84,X,X,"CCCCCCCCCCCCCCCNC(=O)[C@H](O)[C@@H](O)[C@H](O[C@@H]1O[C@H](CO)[C@H](O)[C@H](O)[C@H]1O)[C@H](O)CO [SS, C15 D-Lactobionamide]",,,,,,
,,,,,82,X,X,"CCCCCCCCCCCCCCCCCCNC(=O)[C@H](O)[C@@H](O)[C@H](O[C@@H]1O[C@H](CO)[C@H](O)[C@H](O)[C@H]1O)[C@H](O)CO [UU, C18 D-Lactobionamide]",,,,,,
